According to PMC10599030, “[1, 8]-Naphthyridine derivatives as dual inhibitor of alkaline phosphatase and carbonic anhydrase” (BMC Chemistry, 2023):
Several values for one entry are separate records, joined by “and”; a condition that tells them apart may be missing. Equal values may be shown once. Read-outs that look alike come from different tables or passages of the source.

How the values were obtained:
Type in all cases: biochemical
h-CAII = biological target: T1, h-CAII (Homo sapiens, UniProt P00918); experiment: Inhibition assay for carbonic anhydrase II; details: for IC50: n = 3, read-out: CAII IC50 (µM) ± SEM
T1 construct: His (N); host or cells: HEK 293 T
Procedure: (§1) Expression of enzyme protein was done according to previously reported protocol. Briefly, transfection was carried out for CA-II, IX, and XII by using vectors pCMV3-N-His, pCMV3-SP-HIS-ORF, and pCMV3-N-His obtained from Sino Biologicals Inc., respectively. […] When cells gained about 80–90% confluency, they were washed twice with PBS and transfected with 0.2 µg plasmid solution. Cells were incubated for 6 h in 5% CO2 incubator, followed by the addition of fresh growth media. Cells were again incubated for 24 h. Hygromycin B (0.2 mg/mL) was used as a selection antibiotic for transfected cells. Cells were harvested after five days and lysed. Then desired proteins were purified via Ni–NTA resin using imidazole as affinity. SDS PAGE was carried out to confirm the molecular weight of purified protein.
(§2) The CA isozymes inhibition assay was performed according to the reported method after some modifications. Assay buffer was prepared that contained 50 mM tris-sulfate, 0.1 mM ZnCl2, and pH was adjusted at 7.6. Initially, 60 µL assay buffer was added in each well of 96 wells plate, 10 µL test compound (final concentration 100 µM), and followed by the addition of 10 µL working enzyme solution. The reaction mixture was incubated for 10 min at 37 °C. […] Then 20 µL of the substrate (6 mM) was added to the reaction mixture to initiate the reaction. The reaction mixture was incubated at 37 °C for 30 min, and absorbance was measured again. […] Results were reported as the mean of triplicate experiments (± SEM). The % inhibition was calculated by following the formula. Inhibition%=100-ODtestcompound/ODcontrol×100

h-CAIX = biological target: T2, h-CAIX (Homo sapiens, UniProt Q16790); experiment: Inhibition assay for carbonic anhydrase IX; details: for IC50: n = 3, read-out: CAIX IC50 (µM) ± SEM
T2 construct: His (N); host or cells: HEK 293 T
Procedure: as §1, §2

h-CAXII = biological target: T3, h-CAXII (Homo sapiens, UniProt O43570); experiment: Inhibition assay for carbonic anhydrase XII; details: for IC50: n = 3, read-out: CAXII IC50 (µM) ± SEM
T3 construct: His (N); host or cells: HEK 293 T
T3 sequence (O43570 25-354): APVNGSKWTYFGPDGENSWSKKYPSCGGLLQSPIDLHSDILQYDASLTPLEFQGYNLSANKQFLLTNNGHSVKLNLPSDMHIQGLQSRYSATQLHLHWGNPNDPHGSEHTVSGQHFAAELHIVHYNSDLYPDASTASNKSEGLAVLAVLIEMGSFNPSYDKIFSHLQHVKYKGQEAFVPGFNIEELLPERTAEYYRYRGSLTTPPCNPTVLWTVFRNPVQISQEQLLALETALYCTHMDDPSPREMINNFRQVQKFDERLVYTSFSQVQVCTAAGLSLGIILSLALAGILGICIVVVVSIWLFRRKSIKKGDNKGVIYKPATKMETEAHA
Procedure: as §1, §2

b-TNAP = biological target: T4, b-TNAP (Bos taurus, UniProt P09487); experiment: Alkaline phosphatase inhibition assay (b-TNAP, p-NPP substrate); details: for IC50: n = 3, read-out: b-TNAP IC50 (µM) ± SEM; for inhibition at 100 µM: read-out: b-TNAP % Inhibition
T4 sequence (P09487 18-524): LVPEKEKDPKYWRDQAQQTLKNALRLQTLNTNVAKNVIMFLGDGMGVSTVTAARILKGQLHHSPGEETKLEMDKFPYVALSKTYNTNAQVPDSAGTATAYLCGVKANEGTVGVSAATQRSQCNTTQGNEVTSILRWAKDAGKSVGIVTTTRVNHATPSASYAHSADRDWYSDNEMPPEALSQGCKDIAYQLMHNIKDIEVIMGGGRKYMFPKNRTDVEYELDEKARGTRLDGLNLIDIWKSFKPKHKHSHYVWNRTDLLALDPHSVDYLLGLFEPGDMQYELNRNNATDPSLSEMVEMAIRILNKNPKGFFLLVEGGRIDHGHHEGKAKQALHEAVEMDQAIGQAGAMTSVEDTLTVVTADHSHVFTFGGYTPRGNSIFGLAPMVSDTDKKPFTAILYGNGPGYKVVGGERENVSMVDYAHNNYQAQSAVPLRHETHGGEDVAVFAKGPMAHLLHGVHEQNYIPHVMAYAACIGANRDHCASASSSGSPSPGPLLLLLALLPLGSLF
Procedure: The assay was based on previously reported protocol. […] All the solutions were made in assay buffer comprising Tris-HCl (50 mM), ZnCl2 (0.1 mM) and MgCl2 (5 mM) and pH was adjusted at 9.5. […] Assay was started by adding 70 μL of assay buffer in each well of 96 wells flat bottom clear microplate, followed by adding 10 μL of test compound and 10 μL of working enzyme solution. The reaction mixture was incubated at 37 °C for 10 min and absorbance was measured by a microplate reader (Bio-[…], Instruments, Inc. USA) at 405 nm. The reaction was started by adding 10 μL of 5 mM p-NPP (para-nitrophenolphosphate) as substrate. […] Following formula was used to calculate the percentage of inhibition of test compounds.

c-IAP = c-IAP (Bos taurus, UniProt P19111); experiment: Alkaline phosphatase inhibition assay (c-IAP, p-NPP substrate)
Chain of c-IAP (P19111 20-506): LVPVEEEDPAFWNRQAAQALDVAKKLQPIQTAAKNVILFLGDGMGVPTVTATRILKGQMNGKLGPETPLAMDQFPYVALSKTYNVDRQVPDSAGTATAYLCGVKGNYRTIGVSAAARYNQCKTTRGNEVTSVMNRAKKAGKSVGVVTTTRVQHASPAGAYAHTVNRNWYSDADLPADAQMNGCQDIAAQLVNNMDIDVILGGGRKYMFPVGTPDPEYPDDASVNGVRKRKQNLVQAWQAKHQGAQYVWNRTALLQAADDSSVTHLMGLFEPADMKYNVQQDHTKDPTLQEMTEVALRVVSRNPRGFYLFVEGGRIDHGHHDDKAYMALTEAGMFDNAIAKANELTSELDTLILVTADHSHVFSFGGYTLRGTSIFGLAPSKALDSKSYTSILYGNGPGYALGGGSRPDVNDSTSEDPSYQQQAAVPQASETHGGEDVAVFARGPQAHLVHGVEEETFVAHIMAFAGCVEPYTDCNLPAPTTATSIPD
Procedure: [1, 8]-Naphthyridine derivatives were screened for inhibitor potential towards b-TNAP and c-IAP. The assay was based on previously reported protocol. […]. All the solutions were made in assay buffer comprising Tris–HCl (50 mM), ZnCl2 (0.1 mM) and MgCl2 (5 mM) and pH was adjusted at 9.5. Working solutions of both enzymes were prepared in assay buffer containing 50% of glycerol. The final concentration of b-TNAP and c-IAP were kept at 0.025 U/mL and 0.05 U/mL, respectively. Assay was started by adding 70 µL of assay buffer in each well of 96 wells flat bottom clear microplate, followed by adding 10 µL of test compound and 10 µL of working enzyme solution. The reaction mixture was incubated at 37 °C for 10 min and absorbance was measured by a microplate reader (Bio-TekELx 800™, Instruments, Inc. USA) at 405 nm. The reaction was started by adding 10 µL of 5 mM p-NPP (para-nitrophenolphosphate) as substrate. […]. Following formula was used to calculate the percentage of inhibition of test compounds. Inhibition%=100-ODtestcompound/ODcontrol×100

[1] = 100 µM final concentration of compound

IC50 (h-CAII) [µM]	IC50 (h-CAIX) [µM]	IC50 (h-CAXII) [µM]	IC50 (b-TNAP)	SMILES	also measured
1.28 ± 0.16	0.86 ± 0.47	0.32 ± 0.07	0.38 ± 0.09 µM	c1ccc(-c2cc3cccnc3n3cccc23)cc1 [Compound 1a]	–
1.26 ± 0.44	–	1.51 ± 0.72	0.122 µM and 0.12 µM	CC(C)(C)c1ccc(-c2cc3cccnc3n3cccc23)cc1 [Compound 1b]	Times more potent as compared to Levamisole (standard inhibitor of TNAP) (b-TNAP; ratio of IC50 values): 160 times
0.9 ± 0.5	0.7 ± 0.27	0.96 ± 0.28	1.01 ± 0.31 µM	Fc1ccc(-c2cc3cccnc3n3cccc23)cc1 [Compound 1c]	–
0.44 ± 0.19	1.61 ± 0.26	0.51 ± 0.41	0.32 ± 0.11 µM	CCCCc1cc2cccnc2n2cccc12 [Compound 1e]	–
–	0.99 ± 0.12	4.3 ± 2.2	0.14 ± 0.12 µM	COc1ccc(-c2cc3cccnc3n3cccc23)cc1 [Compound 1f]	–
0.1 ± 0.04	0.11 ± 0.03	3.05 ± 0.92	0.63 ± 0.47 µM	COc1cccc(-c2cc3cccnc3n3cccc23)c1 [Compound 1g]	–
1.99 ± 0.71	3.2 ± 1.52	1.5 ± 0.31	0.24 ± 0.06 µM	c1cnc2c(c1)cc(C1CCCCC1)c1cccn12 [Compound 1l]	–
–	–	–	–	N[C@@H](Cc1ccccc1)C(=O)O [L-phenyl alanine, reference compound]	IC50 (c-IAP; n = 3, read-out: c-IAP IC50 (µM) ± SEM): 80.21 ± 0.001 µM
–	–	–	19.21 ± 0.001 µM	c1ccc([C@H]2CN3CCSC3=N2)cc1 [Levamisole, reference compound]	–

SMILES	IC50 (h-CAII) [µM]	IC50 (h-CAIX) [µM]	IC50 (h-CAXII) [µM]	IC50 (b-TNAP)	also measured
Cc1ccc(-c2cc3cccnc3n3cccc23)cc1 [Compound 1d]	–	1.36 ± 0.48	2.4 ± 0.98	–	Activity against CA-II in words (h-CAII): inactive; Activity against CA-IX in words (h-CAIX): marked activity; Activity against CA-XII in words (h-CAXII): marked activity; inhibition at 100 µM (b-TNAP): < 30%
COc1ccc(-c2cc3cccnc3n3cccc23)c(C)c1 [Compound 1h]	1.46 ± 0.96	0.74 ± 0.51	0.8 ± 0.69	–	Activity against b-TNAP in words (b-TNAP): loss of activity; inhibition at 100 µM (b-TNAP; [1]): 33%; Activity against c-IAP in words (c-IAP): complete loss of activity; inhibition at 100 µM (c-IAP; read-out: c-IAP % Inhibition): 37%
Cc1cccc(-c2cc3cccnc3n3cccc23)c1 [Compound 1i]	–	0.87 ± 0.51	0.46 ± 0.12	–	Activity against CA-II in words (h-CAII): inactive; Activity against CA-IX in words (h-CAIX): significant activity; Activity against CA-XII in words (h-CAXII): significant activity; Activity against b-TNAP in words (b-TNAP): loss of activity; inhibition at 100 µM (b-TNAP): < 30%
Fc1ccccc1-c1cc2cccnc2n2cccc12 [Compound 1j]	2.14 ± 0.3	1.65 ± 0.98	0.51 ± 0.26	–	Activity against b-TNAP in words (b-TNAP): loss of activity; inhibition at 100 µM (b-TNAP): < 20%
c1cnc2c(c1)cc(-c1ccsc1)c1cccn12 [Compound 1k]	1.63 ± 0.55	–	1.8 ± 0.42	0.36 ± 0.07 µM	CAIX % inhibition (h-CAIX; [1]): 35.1%; inhibition at 100 µM (h-CAIX; [1]): < 50%
